# Measurements as given in ChEMBL document CHEMBL3507680, “University of Dundee, Gates Library screen for HepG2 cell viability”.
# Test: Human HepG2 cell viability assay in 384 well format
# Type: toxicity, cell-based
# Design: dose 125 nL, time 70.5 hour; cytotoxicity at 70.5 h: concentration not given beside the values
# Conditions: HepG2 cells, read-out: Inhibition
row,Compound,cytotoxicity at 70.5 h
1,COc1cc(OC)c(CNC(=O)NCC(=O)N(C)C)c(OC)c1,1.38%
2,COc1cc(C)nc(N2CCN(C(=O)c3ccoc3C)CC2)n1,-6.48%
3,CC(C)CNC(=O)c1ccc(NC(=O)NC(C)c2ccccn2)cc1 (stereo unspecified),-5.93%
4,CC(C)N1CCC(c2nnc(CN3CCCC3)n2C2CC2)CC1,-4.86%
5,COCCOc1ncccc1NCc1nc2ccccc2n1C,-15.1%
6,CC(=O)Nc1ccc2nc(-c3nccn3CCCN(C)C)ccc2c1,-8.35%
7,Cc1ccc(C(=O)Nc2ccc(N(C)C)cn2)n1C,7.03%
8,CCC(=O)N1CCN(C(=O)c2ccc(OC)o2)[C@H]2CS(=O)(=O)C[C@H]21,-4.25%
9,CCc1cnc(N2C[C@H]3C[C@H](C(=O)N(C)C)[C@@H](C2)O3)nc1,-7.47%
10,OCC1CCCN1c1cc(NCc2cccnc2)ncn1 (stereo unspecified),-1.41%
11,Cn1cccc1C(=O)N1CC[C@H]2[C@H](CO[C@H]2CNS(C)(=O)=O)C1,-4.35%
12,COc1ccc(C(C)NC(=O)Cn2ccc(=O)n(C)c2=O)cc1OC (stereo unspecified),-6.92%
13,c1ncn(CC2CCCN(Cc3nc(C4CC4)no3)C2)n1 (stereo unspecified),31.5%
14,CCC(c1ccncc1)N(C)S(C)(=O)=O (stereo unspecified),-1.1%
15,COc1ccc(N(C)Cc2nc3c(cnn3C)c(=O)[nH]2)cc1OC,0.734%
16,CNC(=O)CCc1cc(C2CCN(c3cnccn3)CC2)nc(C)n1,-8.81%
17,CN(C)C(=O)c1cc2c(nc1NCC1CC1)CCNCC2,29.7%
18,CCN1CCCC(O)(CNCc2ccncc2)C1 (stereo unspecified),14.1%
19,Cc1nnc(CN2CCN(C)C3(CCNC(=O)CC3)C2)s1 (stereo unspecified),2.04%
20,Cc1cc(NC(=O)NCC(O)c2ccc(F)cc2)n(C)n1 (stereo unspecified),-12.7%
21,NC(=O)c1cnc2n1CCN(C(=O)c1cccc(Cn3cccn3)c1)C2,-5.38%

row,Compound,cytotoxicity at 70.5 h
1,CCCC(=O)NCCc1cc(NC)nc(-c2ccccn2)n1,20.8%
2,CC1CCN(CC2CCCN(C(=O)Nc3ccccn3)C2)CC1 (stereo unspecified),-7.54%
3,CCc1c(C)nn(CC(=O)NC(C)c2n[nH]c(C)n2)c1C (stereo unspecified),16.1%
4,O=C(c1ccno1)N1CCO[C@@H]2CC(COCc3ccccn3)C[C@H]21 (stereo partly specified),-6.23%
5,COc1ccc(CN2CCc3[nH]nc(C(=O)N(C)C)c3C2)cc1,-8.01%
6,CNC(=O)CCc1cc(C)nc(C2CCN(C(=O)CN(C)C)CC2)c1,-3.32%
7,CC(=O)NCC(=O)N1Cc2ccnn2CC(COCCN(C)C)C1 (stereo unspecified),-6.24%
8,COC(=O)[C@H](CCSC)NC(=O)Cc1c(C)nn(-c2ccccc2)c1C,-11.6%
9,CCOc1ccc(N2CCCN=C2NC(=O)c2ccc(OC)cc2)cc1,-9.82%
10,CCn1nccc1CN(C)C(=O)Cn1cc2c(n1)c(C)nn2CC,-1.76%
11,Cc1ccc(Cl)c(CN2CCN(C)C(C(=O)O)C2)c1F (stereo unspecified),-5.85%
12,CNC(=O)c1cccc(CN2CCC(N(C)Cc3noc(C)n3)C2)c1 (stereo unspecified),-4.76%
13,COC(CNC(=O)C1CCN(S(C)(=O)=O)CC1)c1ccc(C)s1 (stereo unspecified),-12%
14,CCOc1ccc(NC(=O)N2CCNC(=O)C2)c(C(F)(F)F)c1,1.37%
15,CCc1nnc2n1CCN(C(=O)c1cnn(C)c1C1CC1)C2,8.38%
16,CCN1CCN(c2ncnc3c2CCN(C(=O)C2CC2)C3)CC1,26.2%
17,Cc1n[nH]c(C)c1CCNC(=O)C1CCCN(CC(N)=O)C1 (stereo unspecified),-1.91%
18,Cn1ccnc1CN1CC[C@H](O)[C@@H](n2ccc(=O)[nH]c2=O)CC1,-3.14%
19,c1ccc(C2CCCN2C2CSCCSC2)nc1 (stereo unspecified),-4.87%
20,COCc1c(Cl)cccc1NC(=O)NCc1cccc(N(C)C)n1,1.02%
21,COc1ccc(-n2cccn2)c(CN2CCOCC(CN(C)C)C2)c1 (stereo unspecified),18.8%

row,Compound,cytotoxicity at 70.5 h
1,Cn1cc(C(=O)NC2CCN(C(=O)NCCSC(F)(F)F)CC2)cn1,-1.82%
2,CCCc1ccc(CN2CCN(C(=O)C(C)C)[C@@H]3CS(=O)(=O)C[C@@H]32)o1,-6.33%
3,O=C(O)c1cccc(CC2CCN(c3ncc(F)cn3)CC2)c1,-9.85%
4,Cc1occc1C(=O)N1CCC2(CCC2NC(=O)c2ccn(C)c2)CC1 (stereo unspecified),-2.29%
5,COc1cc(F)c(CN2CC[C@@](O)(C3CC3)[C@H](C)C2)cc1OC,-3.1%
6,O=S(=O)(N1CCCC1)N1CCN(CC2CCCO2)CC1 (stereo unspecified),-3.59%
7,CCCN1CCN(c2ccc(-c3nc(C)no3)cn2)CC1,13%
8,CN1CC2(CCN(Cc3ncc[nH]3)CC2)CC1=O,-4.6%
9,O=C(O)CSc1nnc(-c2cn[nH]c2)n1-c1ccccc1Cl,17.6%
10,CN1CCC(c2nc3ccc(-c4cccc(F)c4)cn3n2)CC1,-6.5%
11,N#Cc1cc(NC(=O)c2ccncc2)ccc1N1CCC(O)CC1,-3.68%
12,N#Cc1c[nH]nc1NCc1ccc2c(c1)OCO2,-10.8%
13,Cc1ccoc1C(=O)N1C[C@@H](N2CCN(C)CC2)[C@H]2OCCC[C@H]21,-4.64%
14,CN(CC(=O)Nc1cc(CC2CCCCC2)n[nH]1)S(C)(=O)=O,-4.16%
15,CC(=O)N1CCc2nc(N3CCCC3)nc(C)c2C1,-0.643%
16,C[C@@H]1CN(c2ccc3c(Cl)ccnc3c2F)CC(C(N)=O)O1 (stereo partly specified),-4.78%
17,CN(Cc1cccnc1)CC1CCOc2ccccc2C1 (stereo unspecified),-5.68%
18,c1ccc(CN2CCN(Cc3cscn3)CC2)cc1,-6.7%
19,O=C(c1ccc(N2CCCC2)nn1)N1CCCc2ccc(F)cc21,8.25%
20,CC(C)n1c(C2CCCN(CC(N)=O)C2)nc2ccccc21 (stereo unspecified),-1.68%
21,CCn1ncc2c1C(COC)N(C(=O)c1ccc3c(c1)OCO3)CC2 (stereo unspecified),-5.04%

row,Compound,cytotoxicity at 70.5 h
1,CCOc1ncccc1CNc1cc(COC)ncn1,1.28%
2,COCC(C)NC(=O)c1cc(Br)c2c(c1)OCCO2 (stereo unspecified),-10.9%
3,CCCc1noc(CCCC(=O)N2CCCC2c2cnn(C)c2)n1 (stereo unspecified),-8.23%
4,Cc1nc(C)n(CC2CCCCN2CCOc2ccc(C#N)cc2)n1 (stereo unspecified),-9.43%
5,Cc1ccc(C)c(S(=O)(=O)CCNC2CCc3ncnn3C2)c1 (stereo unspecified),-0.666%
6,O=C1[C@H]2CN(Cc3cccs3)C[C@H]2CN1c1ccsc1,-5.8%
7,Cn1cc(CCC(=O)NC(c2ccc(F)cc2)C(F)(F)F)cn1 (stereo unspecified),-8.97%
8,CC(NC(=O)CCn1cccn1)c1cn(-c2ccccc2)nn1 (stereo unspecified),-5.23%
9,CN(C1CCCCC1)S(=O)(=O)N1CCN(Cc2ccon2)CC1,-9.52%
10,CC(C)c1nc(C2CCCN2Cc2ccncc2Cl)no1 (stereo unspecified),-11.2%
11,O=C1CCC(=O)N1c1nn(Cc2cccc(F)c2)cc1Cl,-0.348%
12,COc1cc(C(=O)N2CC3(CCNCC3)c3cc(Cl)ccc32)ccn1,-6.87%
13,CCOc1cncc(NCCc2nnc3ccccn23)n1,-4.67%
14,CCS(=O)(=O)N1C[C@H]2C[C@H](C(=O)N(C)C)[C@@H](C1)O2,-19.2%
15,Cc1ccc(-c2cc(-c3nc(CN4CCN(C)CC4)no3)[nH]n2)s1,-10.5%
16,Cn1cc(-c2cnc3n2CCC32CCN(S(C)(=O)=O)CC2)cn1,-0.823%
17,CC(C)n1nc2c(cc1=O)CN(CCOc1ccccc1C#N)CC2,6.74%
18,COc1ccc(C(C)N2CCC(CNC(C)=O)CC2)cc1Cl (stereo unspecified),-1.84%
